US11440906B2, “Biguanide derivatives and their rearrangement products for use in the treatment of cancer” (CENTRE NATIONAL DE LA RECHERCHE SCIENTIFIQUE, priority 2017, dated 2022)

What was measured:
[1] = test system: A375 sensitive melanoma cells; assay: In vivo murine cancer model, A375 sensitive xenograft; parameters: species or system BALB/c nu/nu (nude) mice; conditions: 0.7 mg/mouse/day intraperitoneal
Protocol: Animal experiments were carried out in accordance with the Declaration of Helsinki and were approved by a local ethical committee CIEPAL (Comité Institutionnel d'Ethique Pour l'Animal de Laboratoire-Azur). Female immune-deficient BALB/c nu/nu (nude) mice were obtained at 5 weeks of age from Envigo Laboratory (Gannat, France). Nude mice were inoculated subcutaneously with A375 sensitive or resistant melanoma cells (1.0×10^6 cells/mouse). After tumor apparition (±5 days), animals received intraperitoneal injection of Labrafil (Control), PLX4032 (0.7 mg/mouse/day) or CRO15 (0.7 mg/mouse/day) dissolved in Labrafil. The growth tumor curves were determined by measuring the tumor volume using the equation V=(L*W2)/2 (V=tumor volume, W=tumor width, L=tumor length). At the end of the experiment, mice were euthanized by cervical dislocation and tumors were taken for western blot and immunofluorescence experiments (LC3, Cleaved Caspase 3). TUNEL assay was performed using the In Situ Cell Death Detection Kit (Roche, Meylan, France). The results are shown in FIGS. 3A and 3B (A375 sensitive melanoma cells), and 4B and 4C (A375 resistant melanoma cells).

WM9 cells = assay: Resistance development in WM9 cells after 8 weeks of drug exposure; assay type: cell-based, human; conditions: 8 weeks increasing concentrations, then 10 μM 48 hrs; FIG. 7B
Text: Different melanoma cell lines were purchased from the American Tissue Culture Collection: A375 and WM9 cells are mutated on B-Raf, CDKN2A and PTEN proteins; SKmel28 cells are mutated on B-Raf and P53 proteins; 1205Lu cells are mutated on B-Raf and PTEN proteins; G-361 cells are mutated on B-Raf and CDKN2A proteins; C8161 cells are mutated on B-Raf and K-Ras proteins; WM3912 cells are mutated on B-Raf and CDKN2A proteins; MeWo cells are mutated on P53 and CDKN2A proteins; WM3918 presents no mutations on characteristic proteins.
For trypan blue staining, […] of cells (melanoma and normal human cells) were aseptically transferred to a 1.5 mL clear Eppendorf tube and incubated for 3 min at room temperature with an equal volume of 0.4% trypan blue solution. Viable cells were counted and the results are expressed as the percentage of the value of control cells. All the experiments are performed 3 times in triplicate.
To study weither melanoma cells WM9 would develop resistance to CRO15, these cells were kept in culture during 8 weeks in presence of increasing concentrations of either, DMSO (control), PLX4032, CRO15 or MTF255. The starting concentration was 0.2 μM.
Along with non-treated WM9S (naive cells), drug-treated WM9S were then stimulated with 10 μM of each drug during 48 hrs. Viable cells were counted using the trypan blue dye exclusion method. […]

## Nc1nc(Nc2ccccc2SSc2ccccc2Nc2nc(N)nc(C(Cl)(Cl)Cl)n2)nc(C(Cl)(Cl)Cl)n1 [CRO15, N2,N2′-(disulfanediylbis(2,1-phenylene))bis(6-(trichloromethyl)-1,3,5-triazine-2,4-diamine)]
[1]; FIG. 3A
  tumor volume: reduces
[1]; FIG. 3B
  tumor weight: reduces
WM9 cells
  cell viability of WM9 after 8 weeks of treatment and stimulation with the drug: still able to induce cell death
